Reference: article PMC10247784, “Physiological activation of human and mouse bitter taste receptors by bile acids” (Communications Biology, 2023)
Several values for one entry are separate records, joined by “and”; a condition that tells them apart may be missing. Equal entries are not always repeated.

Target: T1, human TAS2R14 (Homo sapiens, UniProt Q9NYV8)
T1 construct: expressed in transfected cells; host or cells: HEK293T-Gα16gust44
T1 sequence (Q9NYV8 1-317): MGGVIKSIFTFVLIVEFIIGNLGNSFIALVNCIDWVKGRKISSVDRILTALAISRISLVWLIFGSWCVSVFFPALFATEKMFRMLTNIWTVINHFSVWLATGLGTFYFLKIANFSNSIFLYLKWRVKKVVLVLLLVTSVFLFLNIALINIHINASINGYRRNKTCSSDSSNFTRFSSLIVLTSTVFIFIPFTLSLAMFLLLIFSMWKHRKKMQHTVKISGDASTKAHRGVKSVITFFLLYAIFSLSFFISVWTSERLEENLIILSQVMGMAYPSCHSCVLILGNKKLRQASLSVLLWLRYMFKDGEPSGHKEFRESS
Assay: Calcium imaging assay (FLIPR), HEK293T-Gα16gust44 cells transfected with human TAS2R14
Assay type: cell-based
Settings: for RLU: TAS2R14 trace
Summary of the method: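 Calcium responses via FLIPR in receptor-transfected HEK293T-Gα16gust44 cells (Fluo-4-AM, 2.5 mM probenecid), after mock-signal subtraction and normalization to baseline and buffer (ΔF/F). Threshold concentration is the lowest dose differing from mock cells at p < 0.01 (Student's t-test), from three biological replicates in duplicate.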

With `C[C@H](CCC(=O)NCCS(=O)(=O)O)[C@H]1CC[C@H]2[C@@H]3CC[C@@H]4C[C@H](O)CC[C@]4(C)[C@H]3CC[C@]12C` [Taurolithocholic Acid, taurolithocholic acid] the “Efficacy = maximal amplitude (ΔF/F)” value (TAS2R14, bile acids, mean) was 0.07188, the “Efficacy (maximal amplitude ΔF/F), individual data points” value (TAS2R14, bile acids, single replicates, listed as TLCA) was 0.06981 and 0.08988 and 0.05106 and the RLU (Time (s) 0) was 0 RLU. For the same compound, the RLU (Time (s) 2 (Taurocholic Acid 2.016)) was 5.076 RLU, the RLU (Time (s) 4 (Taurocholic Acid 4.016)) was -5.108 RLU and the RLU (Time (s) 6 (Taurocholic Acid 6.016)) was -10.1397 RLU. It also gave an RLU (Time (s) 8 (Taurocholic Acid 8.016)) of -25.9369 RLU, an RLU (Time (s) 12 (Taurocholic Acid 12.016)) of -47.2431 RLU and an RLU (Time (s) 14 (Taurocholic Acid 14.016)) of -37.8259 RLU. It also gave an RLU (Time (s) 16 (Taurocholic Acid 16.016)) of -67.1139 RLU, an RLU (Time (s) 18 (Taurocholic Acid 18.016)) of -63.8827 RLU and an RLU (Time (s) 18.797 (Chenodeoxycholic Acid 18.765)) of -68.311 RLU. The RLU (Time (s) 20.797 (Chenodeoxycholic Acid 20.781)) was -66.196 RLU, the RLU (Time (s) 22.797 (Chenodeoxycholic Acid 22.781)) was -50.0226 RLU and the RLU (Time (s) 24.797 (Chenodeoxycholic Acid 24.781)) was -48.2767 RLU. The RLU (Time (s) 26.797 (Chenodeoxycholic Acid 26.781)) was -41.6616 RLU, the RLU (Time (s) 28.797 (Chenodeoxycholic Acid 28.781)) was -45.6719 RLU and the RLU (Time (s) 30.797 (Chenodeoxycholic Acid 30.781)) was -13.6241 RLU. The RLU (Time (s) 32.797 (Chenodeoxycholic Acid 32.781)) was 14.5625 RLU, the RLU (Time (s) 34.797 (Chenodeoxycholic Acid 34.781)) was 34.5332 RLU and the RLU (Time (s) 36.797 (Chenodeoxycholic Acid 36.781)) was 37.8124 RLU. The RLU (Time (s) 38.797 (Chenodeoxycholic Acid 38.781)) was 50.8625 RLU, the RLU (Time (s) 40.797 (Chenodeoxycholic Acid 40.781)) was 58.2474 RLU and the RLU (Time (s) 42.797 (Chenodeoxycholic Acid 42.781)) was 67.9279 RLU. It also gave an RLU (Time (s) 44.797 (Chenodeoxycholic Acid 44.781)) of 76.8016 RLU, an RLU (Time (s) 46.797 (Chenodeoxycholic Acid 46.781)) of 99.8168 RLU and an RLU (Time (s) 48.797 (Chenodeoxycholic Acid 48.781)) of 113.593 RLU. For the same compound, the RLU (Time (s) 50.797 (Chenodeoxycholic Acid 50.781)) was 125.702 RLU, the RLU (Time (s) 52.797 (Chenodeoxycholic Acid 52.781)) was 143.488 RLU and the RLU (Time (s) 54.797 (Chenodeoxycholic Acid 54.781)) was 148.335 RLU. It also gave an RLU (Time (s) 56.797 (Chenodeoxycholic Acid 56.781)) of 163.155 RLU, an RLU (Time (s) 58.797 (Chenodeoxycholic Acid 58.781)) of 176.389 RLU and an RLU (Time (s) 60.797 (Chenodeoxycholic Acid 60.781)) of 197.723 RLU. The RLU (Time (s) 62.797 (Chenodeoxycholic Acid 62.781)) was 213.291 RLU, the RLU (Time (s) 64.797 (Chenodeoxycholic Acid 64.781)) was 213.968 RLU and the RLU (Time (s) 66.797 (Chenodeoxycholic Acid 66.781)) was 225.512 RLU. It also gave an RLU (Time (s) 68.797 (Chenodeoxycholic Acid 68.781)) of 237.861 RLU, an RLU (Time (s) 70.797 (Chenodeoxycholic Acid 70.781)) of 234.615 RLU and an RLU (Time (s) 72.797 (Chenodeoxycholic Acid 72.781)) of 231.58 RLU. The RLU (Time (s) 74.797 (Chenodeoxycholic Acid 74.781)) was 268.946 RLU, the RLU (Time (s) 76.797 (Chenodeoxycholic Acid 76.781)) was 267.933 RLU and the RLU (Time (s) 78.797 (Chenodeoxycholic Acid 78.781)) was 291.733 RLU. For the same compound, the RLU (Time (s) 80.797 (Chenodeoxycholic Acid 80.781)) was 290.533 RLU, the RLU (Time (s) 82.797 (Chenodeoxycholic Acid 82.781)) was 307.412 RLU and the RLU (Time (s) 84.797 (Chenodeoxycholic Acid 84.781)) was 297.633 RLU. It also gave an RLU (Time (s) 86.797 (Chenodeoxycholic Acid 86.781)) of 303.737 RLU, an RLU (Time (s) 88.797 (Chenodeoxycholic Acid 88.781)) of 299.661 RLU and an RLU (Time (s) 90.797 (Chenodeoxycholic Acid 90.781)) of 303.944 RLU. For the same compound, the RLU (Time (s) 92.797 (Chenodeoxycholic Acid 92.781)) was 328.349 RLU, the RLU (Time (s) 94.797 (Chenodeoxycholic Acid 94.781)) was 307.307 RLU and the RLU (Time (s) 96.797 (Chenodeoxycholic Acid 96.781)) was 314.559 RLU. The RLU (Time (s) 98.797 (Chenodeoxycholic Acid 98.781)) was 326.967 RLU, the RLU (Time (s) 100.797 (Chenodeoxycholic Acid 100.781)) was 302.894 RLU and the RLU (Time (s) 102.797 (Chenodeoxycholic Acid 102.781)) was 324.498 RLU. It also gave an RLU (Time (s) 104.797 (Chenodeoxycholic Acid 104.781)) of 347.898 RLU, an RLU (Time (s) 106.797 (Chenodeoxycholic Acid 106.781)) of 338.946 RLU and an RLU (Time (s) 108.797 (Chenodeoxycholic Acid 108.781)) of 361.614 RLU. For the same compound, the RLU (Time (s) 110.797 (Chenodeoxycholic Acid 110.781)) was 335.334 RLU, the RLU (Time (s) 112.797 (Chenodeoxycholic Acid 112.781)) was 367.933 RLU and the RLU (Time (s) 114.797 (Chenodeoxycholic Acid 114.781)) was 388.996 RLU. For the same compound, the RLU (Time (s) 116.797 (Chenodeoxycholic Acid 116.781)) was 373.414 RLU, the RLU (Time (s) 118.797 (Chenodeoxycholic Acid 118.781)) was 374.133 RLU and the RLU (Time (s) 120.797 (Chenodeoxycholic Acid 120.781)) was 378.298 RLU. For the same compound, the RLU (Time (s) 122.797 (Chenodeoxycholic Acid 122.781)) was 394.755 RLU, the RLU (Time (s) 124.797 (Chenodeoxycholic Acid 124.781)) was 385.131 RLU and the RLU (Time (s) 126.797 (Chenodeoxycholic Acid 126.781)) was 394.257 RLU. The RLU (Time (s) 128.797 (Chenodeoxycholic Acid 128.781)) was 394.724 RLU, the RLU (Time (s) 130.797 (Chenodeoxycholic Acid 130.781)) was 379.935 RLU and the RLU (Time (s) 132.797 (Chenodeoxycholic Acid 132.781)) was 394.817 RLU. For the same compound, the RLU (Time (s) 134.797 (Chenodeoxycholic Acid 134.781)) was 375.334 RLU, the RLU (Time (s) 136.797 (Chenodeoxycholic Acid 136.781)) was 397.788 RLU and the RLU (Time (s) 137.562 (Taurocholic Acid 137.563, Chenodeoxycholic Acid 137.546)) was 382.953 RLU. It also gave an RLU (Time (s) 143.578 (Taurocholic Acid 143.563, Chenodeoxycholic Acid 143.546)) of 394.002 RLU, an RLU (Time (s) 149.578 (Taurocholic Acid 149.563, Chenodeoxycholic Acid 149.546)) of 363.524 RLU and an RLU (Time (s) 155.578 (Taurocholic Acid 155.563, Chenodeoxycholic Acid 155.546)) of 370.686 RLU. For the same compound, the RLU (Time (s) 161.578 (Taurocholic Acid 161.563, Chenodeoxycholic Acid 161.546)) was 390.532 RLU, the RLU (Time (s) 167.578 (Taurocholic Acid 167.563, Chenodeoxycholic Acid 167.546)) was 378.911 RLU and the RLU (Time (s) 173.578 (Taurocholic Acid 173.563, Chenodeoxycholic Acid 173.546)) was 356.99 RLU. For the same compound, the RLU (Time (s) 179.578 (Taurocholic Acid 179.563, Chenodeoxycholic Acid 179.546)) was 351.344 RLU, the RLU (Time (s) 191.578 (Taurocholic Acid 191.563, Chenodeoxycholic Acid 191.546)) was 317.716 RLU and the RLU (Time (s) 197.578 (Taurocholic Acid 197.563, Chenodeoxycholic Acid 197.546)) was 291.899 RLU. The RLU (Time (s) 209.578 (Taurocholic Acid 209.563, Chenodeoxycholic Acid 209.546)) was 252.636 RLU, the RLU (Time (s) 221.578 (Taurocholic Acid 221.563, Chenodeoxycholic Acid 221.546)) was 195.665 RLU and the RLU (Time (s) 233.578 (Taurocholic Acid 233.563, Chenodeoxycholic Acid 233.546)) was 155.879 RLU. The RLU (Time (s) 239.578 (Taurocholic Acid 239.563, Chenodeoxycholic Acid 239.546)) was 121.06 RLU, the RLU (Time (s) 245.578 (Taurocholic Acid 245.563, Chenodeoxycholic Acid 245.546)) was 124.983 RLU and the RLU (Time (s) 293.578 (Taurocholic Acid 293.563, Chenodeoxycholic Acid 293.546)) was 26.9674 RLU. It also gave an RLU (Time (s) 299.578 (Taurocholic Acid 299.563, Chenodeoxycholic Acid 299.546)) of 2.882 RLU, an RLU (Time (s) 305.578 (Taurocholic Acid 305.563, Chenodeoxycholic Acid 305.546)) of 10.8603 RLU and an RLU (Time (s) 311.578 (Taurocholic Acid 311.563, Chenodeoxycholic Acid 311.546)) of -14.8461 RLU. It also gave an RLU (Time (s) 317.578 (Taurocholic Acid 317.563, Chenodeoxycholic Acid 317.546)) of -4.053 RLU, an RLU (Time (s) 323.578 (Taurocholic Acid 323.563, Chenodeoxycholic Acid 323.546)) of -64.2935 RLU and an RLU (Time (s) 329.578 (Taurocholic Acid 329.563, Chenodeoxycholic Acid 329.546)) of -47.603 RLU. For the same compound, the RLU (Time (s) 335.578 (Taurocholic Acid 335.563, Chenodeoxycholic Acid 335.546)) was -52.8312 RLU, the RLU (Time (s) 341.578 (Taurocholic Acid 341.563, Chenodeoxycholic Acid 341.546)) was -81.682 RLU and the RLU (Time (s) 347.578 (Taurocholic Acid 347.563, Chenodeoxycholic Acid 347.546)) was -84.764 RLU. The RLU (Time (s) 353.578 (Taurocholic Acid 353.563, Chenodeoxycholic Acid 353.546)) was -78.8648 RLU, the RLU (Time (s) 359.578 (Taurocholic Acid 359.563, Chenodeoxycholic Acid 359.546)) was -73.3268 RLU and the “Activation threshold concentration TAS2R14” value (lowest concentration with significantly increased fluorescence vs empty vector (p < 0.01)) was 0.3 µM.
